Test results: patent US9884842B2, “Combretastatin analogs” (The Board of Trustees of the University of Arkansas, priority 2013, dated 2018)
Like-named read-outs stand apart in the source and are kept apart here.

How the values were obtained:
OVCAR-8 = test: NCI growth inhibition and cytotoxicity screen, Ovarian Cancer panel; conditions: Homo sapiens; for GI50: OVCAR-8; for CC50: OVCAR-8, read-out: LC50
CCRF-CEM = test: NCI growth inhibition and cytotoxicity screen, Leukemia panel; conditions: Homo sapiens; for CC50: read-out: LC50
SN12C = test: NCI growth inhibition and cytotoxicity screen, Renal Cancer panel; conditions: Homo sapiens; for CC50: read-out: LC50
MDA-MB-468 = test: cells; conditions: Homo sapiens; for GI50: MDA-MB-468; for CC50: MDA-MB-468, read-out: LC50
HOP-62 = test: NCI growth inhibition and cytotoxicity screen, Lung Cancer panel; conditions: Homo sapiens; for GI50: HOP-62; for CC50: HOP-62, read-out: LC50
SF-539 = test: NCI growth inhibition and cytotoxicity screen, CNS Cancer panel; conditions: Homo sapiens; for GI50: SF-539; for CC50: SF-539, read-out: LC50
SK-MEL-2 = test: NCI growth inhibition and cytotoxicity screen, Melanoma panel; conditions: Homo sapiens; for GI50: SK-MEL-2; for CC50: SK-MEL-2, read-out: LC50
A549/ATCC = test: NCI growth inhibition and cytotoxicity screen, Lung Cancer panel; conditions: Homo sapiens; for GI50: A549; for CC50: A549, read-out: LC50
BT-549 = test: NCI growth inhibition and cytotoxicity screen, Breast Cancer panel; conditions: Homo sapiens; for GI50: BT-549; for CC50: BT-549, read-out: LC50
HCT-116 = test: NCI growth inhibition and cytotoxicity screen, Colon Cancer panel; conditions: Homo sapiens; for GI50: HCT-116; for CC50: HCT-116, read-out: LC50
PC-3 = test: NCI growth inhibition and cytotoxicity screen, Prostate Cancer panel; conditions: Homo sapiens; for GI50: PC-3; for CC50: PC-3, read-out: LC50
SK-MEL-5 = test: NCI growth inhibition and cytotoxicity screen, Melanoma panel; conditions: Homo sapiens; for GI50: SK-MEL-5; for CC50: SK-MEL-5, read-out: LC50
DU-145 = test: NCI growth inhibition and cytotoxicity screen, Prostate Cancer panel; conditions: Homo sapiens; for GI50: DU-145; for CC50: DU-145, read-out: LC50
RPMI-8226 = test: NCI growth inhibition and cytotoxicity screen, Leukemia panel; conditions: Homo sapiens; for GI50: RPMI-8226; for CC50: RPMI-8226, read-out: LC50
SK-MEL-28 = test: NCI growth inhibition and cytotoxicity screen, Melanoma panel; conditions: Homo sapiens; for GI50: SK-MEL-28; for CC50: SK-MEL-28, read-out: LC50
SF-295 = test: NCI growth inhibition and cytotoxicity screen, CNS Cancer panel; assay type: cell-based; conditions: Homo sapiens; for CC50: read-out: LC50 (the source's name)
NCI-H226 = test: NCI growth inhibition and cytotoxicity screen, Lung Cancer panel; conditions: Homo sapiens; for GI50: NCI-H226; for CC50: NCI-H226, read-out: LC50
UACC-257 = test: NCI growth inhibition and cytotoxicity screen, Melanoma panel; conditions: Homo sapiens; for CC50: UACC-257, read-out: LC50
A498 = test: NCI growth inhibition and cytotoxicity screen, Renal Cancer panel; conditions: Homo sapiens; for GI50: A498; for CC50: A498, read-out: LC50
NCI-H522 = test: NCI growth inhibition and cytotoxicity screen, Lung Cancer panel; assay type: cell-based; conditions: Homo sapiens; for CC50: read-out: LC50 (the source's name)
LOX-IMVI = test: NCI growth inhibition and cytotoxicity screen, Melanoma panel; conditions: Homo sapiens; for CC50: read-out: LC50
HT29 = test: NCI growth inhibition and cytotoxicity screen, Colon Cancer panel; conditions: Homo sapiens; for GI50: HT-29; for CC50: HT-29, read-out: LC50
MALME-3M = test: NCI growth inhibition and cytotoxicity screen, Melanoma panel; conditions: Homo sapiens; for CC50: read-out: LC50
SR = test: NCI growth inhibition and cytotoxicity screen, Leukemia panel; conditions: Homo sapiens; for CC50: read-out: LC50
KM12 = test: NCI growth inhibition and cytotoxicity screen, Colon Cancer panel; conditions: Homo sapiens; for GI50: KM12; for CC50: KM12, read-out: LC50
RXF 393 = test: NCI growth inhibition and cytotoxicity screen, Renal Cancer panel; conditions: Homo sapiens; for GI50: RXF 393; for CC50: RXF 393, read-out: LC50
ACHN = test: as above; conditions: Homo sapiens; for CC50: read-out: LC50
SW-620 = test: NCI growth inhibition and cytotoxicity screen, Colon Cancer panel; conditions: Homo sapiens; for GI50: SW-620; for CC50: SW-620, read-out: LC50
[1] = test system: full panel of 60 different cancer cell lines; test: NCI five dose screen, full panel summary; assay type: cell-based, human; conditions: for GI50: Homo sapiens
[2] = SF-295, Table 1, cell line SF-2395 (CNS Cancer)
[3] = NCI-H522, Table 1, cell line NCIH522 (Lung Cancer)
[4] = Table 2, cell line SF-295 (CNS Cancer)
[5] = Table 2, cell line NCI-H522 (Lung Cancer)

## COc1cc(OC)cc(/C(C#N)=C/c2c[nH]c3ccccc23)c1 [Formula (I)(b)]
OVCAR-8
  GI50: > 100 nM
  CC50: > 100000 nM
CCRF-CEM
  GI50: 42.4 nM
  CC50: > 100000 nM
SN12C
  GI50: 77.9 nM
  CC50: > 100000 nM
MDA-MB-468
  GI50: > 100 nM
  CC50: > 100000 nM
HOP-62
  GI50: > 100 nM
  CC50: > 100000 nM
SF-539
  GI50: 52.2 nM
  CC50: 90200 nM
SK-MEL-2
  GI50: 51.2 nM
  CC50: > 100000 nM
A549/ATCC
  GI50: 61.8 nM
  CC50: > 100000 nM
BT-549
  GI50: > 100 nM
  CC50: > 100000 nM
HCT-116
  GI50: 42.5 nM
  CC50: > 100000 nM
PC-3
  GI50: 75.5 nM
  CC50: > 100000 nM
SK-MEL-5
  GI50: 48.6 nM
  CC50: > 100000 nM
DU-145
  GI50: > 100 nM
  CC50: > 100000 nM
RPMI-8226
  GI50: 65.5 nM
  CC50: > 100000 nM
SK-MEL-28
  GI50: 81.1 nM
  CC50: > 100000 nM
SF-295; [2]
  GI50: 45.3 nM
  CC50: > 100000 nM
NCI-H226
  GI50: > 100 nM
  CC50: > 100000 nM
UACC-257; UACC-257
  GI50: 48.7 nM
UACC-257
  CC50: > 100000 nM
A498
  GI50: 35.3 nM
  CC50: > 100000 nM
NCI-H522; [3]
  GI50: 27.1 nM
  CC50: > 100000 nM
LOX-IMVI
  GI50: 78.4 nM
  CC50: > 100000 nM
HT29
  GI50: 38.4 nM
  CC50: > 100000 nM
MALME-3M
  CC50: > 100000 nM
SR
  GI50: 33.4 nM
  CC50: > 100000 nM
KM12
  GI50: 40.9 nM
  CC50: > 100000 nM
RXF 393
  GI50: 83.7 nM
  CC50: > 100000 nM
ACHN
  GI50: > 100 nM
  CC50: > 100000 nM
SW-620
  GI50: 44.1 nM
  CC50: > 100000 nM

## COc1cc(/C(C#N)=C/c2cnc3ccccc3c2)cc(OC)c1OC [PNR-5-10, (Z)-3-(quinolin-3-yl)-2-(3,4,5-trimethoxyphenyl)acrylonitrile]
OVCAR-8
  GI50: 3410 nM
  CC50: > 100000 nM
CCRF-CEM
  GI50: 1380 nM
  CC50: > 100000 nM
SN12C
  GI50: 1940 nM
  CC50: > 100000 nM
MDA-MB-468
  GI50: 870 nM
  CC50: > 100000 nM
HOP-62
  GI50: 10300 nM
  CC50: > 100000 nM
SF-539
  GI50: 361 nM
  CC50: > 100000 nM
SK-MEL-2
  GI50: 1050 nM
  CC50: > 100000 nM
A549/ATCC
  GI50: 680 nM
  CC50: > 100000 nM
[1]; range over the potently inhibited cell lines, read-out: GI50 ranging (potently inhibited cancer cell lines)
  GI50: 227 to 911 nM
[1]; read-out: average GI50 value on all the cancer cell lines
  GI50: 2490 nM
[1]; share of the cancer cell lines potently inhibited
  potent growth inhibition on % of the cancer cell lines: 47%
BT-549
  GI50: 1430 nM
  CC50: > 100000 nM
HCT-116
  GI50: 464 nM
  CC50: > 100000 nM
PC-3
  GI50: 1080 nM
  CC50: > 100000 nM
SK-MEL-5
  GI50: 410 nM
  CC50: > 100000 nM
DU-145
  GI50: 1510 nM
  CC50: > 100000 nM
RPMI-8226
  GI50: 2060 nM
  CC50: > 100000 nM
SK-MEL-28
  GI50: 3270 nM
  CC50: > 100000 nM
SF-295; [4]
  GI50: 556 nM
  CC50: > 100000 nM
NCI-H226
  GI50: > 100000 nM
  CC50: > 100000 nM
UACC-257
  CC50: > 100000 nM
A498
  GI50: 678 nM
  CC50: > 100000 nM
NCI-H522; [5]
  GI50: 299 nM
  CC50: > 100000 nM
LOX-IMVI
  GI50: 645 nM
  CC50: > 100000 nM
HT29
  GI50: 421 nM
  CC50: > 100000 nM
MALME-3M
  GI50: 691 nM
  CC50: > 100000 nM
SR
  GI50: 569 nM
  CC50: > 100000 nM
KM12
  GI50: 436 nM
  CC50: > 100000 nM
RXF 393
  GI50: 579 nM
  CC50: > 100000 nM
ACHN
  GI50: 911 nM
  CC50: > 100000 nM
SW-620
  GI50: 420 nM
  CC50: > 100000 nM
